In patent US20250353873A1, “COMPOUNDS AND METHODS FOR MODULATING APOE EXPRESSION” (Ionis Pharmaceuticals, Inc., priority 2024, published 2025):
Marks after values point to notes of the source that are not given here. Strand notation (5' to 3'): a small letter for the sugar, then the base; units joined by * are phosphorothioate-linked, units joined directly phosphodiester-linked; [ ] holds rarer units or linkages, { } end groups; capitals alone tell only the bases. [ms] = mesyl phosphoramidate linkage; e = 2'-O-(2-methoxyethyl) (MOE); k = constrained ethyl (cEt); [5mC] = 5-methylcytosine; d = 2'-deoxy (DNA)

What was measured:
human APOE RNA [1] = assay: Activity in APOE C57BL/6NTac-Apoeem7250 knock-in mice, single ICV bolus, 8 weeks (Example 11); format: in vivo; details: single ICV bolus 300 μg, 8 weeks post treatment, normalized to mouse Ppia
How it was run: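 Cortical and spinal cord human APOE RNA quantified by RT-qPCR 8 weeks after a single 300 μg ICV dose in knock-in mice, Ppia-normalized. Values are percent of levels in PBS-treated animals.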

human APOE RNA [2] = assay: Duration of action study in APOE C57BL/6NTac-Apoeem7250 knock-in mice (Example 18); format: in vivo; details: 300 μg ICV
Protocol: Modified oligonucleotides described above were tested in the APOE C57BL/6NTac-Apoeem7250 knock-in model (described above).
Each mouse received a single intracerebroventricular (ICV) bolus of 300 μg of modified oligonucleotide. A group of 4-6 mice received a single ICV bolus with PBS as a negative control.
Mice were sacrificed at various timepoints as indicated in the table below and RNA was extracted from cortical brain tissue and spinal cord for quantitative real-time RT-PCR analysis of RNA expression of APOE using primer probe set RTS3073 (described herein above). APOE RNA levels were normalized to mouse Ppia. Mouse Ppia was amplified using primer probe set m_cyclo24 (described herein above). Results are presented as percent human APOE RNA relative to the amount of human APOE RNA in PBS treated animals, (% control). Each experiment is identified in separate tables below.

| Substance | APOE RNA (% control) Cortex (human APOE RNA [1]) [% control] | APOE RNA (% control) Spinal Cord (human APOE RNA [1]) [% control] | APOE RNA (% control) Cortex (human APOE RNA [2]; 56 days post-dose) | APOE RNA (% control) Cortex (human APOE RNA [2]; 112 days post-dose) [% control] | APOE RNA (% control) Cortex (human APOE RNA [2]; 224 days post-dose) | APOE RNA (% control) Spinal Cord (human APOE RNA [2]; 56 days post-dose) [% control] | APOE RNA (% control) Spinal Cord (human APOE RNA [2]; 112 days post-dose) [% control] | APOE RNA (% control) Spinal Cord (human APOE RNA [2]; 224 days post-dose) | APOE RNA (% control) Cortex (human APOE RNA [2]; 28 days post-dose) [% control] | APOE RNA (% control) Cortex (human APOE RNA [2]; 140 days post-dose) [% control] | APOE RNA (% control) Spinal Cord (human APOE RNA [2]; 28 days post-dose) [% control] | APOE RNA (% control) Spinal Cord (human APOE RNA [2]; 140 days post-dose) [% control] |
| --- | --- | --- | --- | --- | --- | --- | --- | --- | --- | --- | --- | --- |
| 1809637 (kA*e[5mC]eTeT*eG*kG*dT*dG[ms]dA[ms]dA[ms]dT*d[5mC]*dT*dT*dT*dA[ms]kT*kT*kA*kA; antisense) [Compound 1809637] | 20 | 9 | 26‡ % control | 42 | 58‡ % control | 19 | 17 | 36‡ % control | – | – | – | – |
| 1810064: mixed MOE/cEt gapmer CTTGGTGAATCTTTATTAAAC, sugar eeeeekddddddddddeeeee, linkages ssoooszzzssssszsooss (e[5mC]*eT*eTeGeGkT*dG[ms]dA[ms]dA[ms]dT*d[5mC]*dT*dT*dT*dA[ms]dT*eTeAeA*eA*e[5mC]) [compound 1810064] | 23 | 15 | – | 62 | – | – | 31 | – | 40 | 63 | 22 | 48 |
